Measurements from US20040180031A1, “Skin conditioner” (Kabushiki Kaisha Soken, priority 1999, published 2004).

Columns and labels:
persons with atopic skin [1] = experiment: 2-hour moisture retention duration test on atopic skin (Test Example 9); type: in vivo, human
Experimental: A 2-hour moisture retention duration test was performed on atopic skin.

[2] = tested on: normal human skin fibroblasts; experiment: Collagen production recovery test on damaged fibroblasts (Test Example 1); type: cell-based; settings: 3H-proline uptake into collagen; sample final concentration 3.3%; 24 hours at 37° C.; hypoxanthine/xanthine oxidase damage; FIG. 1
Experimental: A collagen production recovery test was conducted on damaged fibroblasts. Six to eight subcultures of normal human skin fibroblasts (Physicochemical Research Institute, Cell Development Bank NBIRGB) were used in the test. […] Measurement of collagen production ability of a confluent in the steady state was performed according to the method of Webster et al. based on the uptake of ^3H-proline into the produced collagen. […] Since proline is a main component of the amino acids that compose collagen, fibroblasts are cultured in a medium containing ^3H-proline, and the ^3H activity taken up into collagen in the cells is measured. Units are in d.p.m., and represent the number of […] of radioactivity released per minute.

persons with atopic skin [3] = experiment: Moisture retention ability test on atopic skin, ammonium samples (Test Example 18); type: in vivo, human; settings: FIG. 54
Experimental: A moisture retention ability test was performed on atopic skin. Test Method: Same as Test Example 3 Measurement Method: Same as Text Example 3 Test Apparatus: Same as Test Example 3

[4] = tested on: volunteers with chapped skin; experiment: Moisture retention duration test on persons with chapped skin, ammonium samples (Test Example 17); type: in vivo, human
Experimental: A moisture retention duration test was conducted on persons with chapped skin.
Test Method: Same as Test Example 2
Measurement Method: Same as Text Example 2
Test Apparatus: Same as Test Example 2

N=C(N)NCCC[C@H](N)C(=O)O [L-arginine]
moisture retention duration / continuation of moisture retention (persons with atopic skin [1]): observed | collagen production ability of fibroblasts damaged by active oxygen [2]: significantly improved

N [ammonium ions]
moisture retention ability (persons with atopic skin [3]): can be observed | moisture retention duration [4]: can be observed

NCCO [ethanolamine]
moisture retention duration / continuation of moisture retention (persons with atopic skin [1]): observed | collagen production ability of fibroblasts damaged by active oxygen [2]: significantly improved
